Organism: Rattus norvegicus
Assay: DrugMatrix - Regimen: Daily Repeat
Format: toxicity, organism-based, Sprague-Dawley
Set-up: regimen Daily Repeat, gender Male, age 6-8 weeks
Conditions: in vivo, sc, […], route mini-PUMP - SUBCUTANEOUS, dose 0.065 mg/Kg, dose level High, vehicle 100 % SALINE; for ABSOLUTE BASOPHIL / ABSOLUTE EOSINOPHIL / ABSOLUTE LYMPHOCYTE / ABSOLUTE MONOCYTE / ABSOLUTE SEGMENTED NEUTROPHIL / BASOPHIL / EOSINOPHIL / ERYTHROCYTE COUNT / HEMATOCRIT / HEMOGLOBIN / LEUKOCYTE COUNT / LYMPHOCYTE / MEAN CORPUSCULAR HEMOGLOBIN / MEAN CORPUSCULAR HEMOGLOBIN CONCENTRATION / MEAN CORPUSCULAR VOLUME / MONOCYTE / NEUTROPHIL / NUCLEATED RED BLOOD CELLS / PLATELET COUNT: tissue Blood; for ALANINE AMINOTRANSFERASE / ALBUMIN / ALKALINE PHOSPHATASE / ASPARTATE AMINOTRANSFERASE / BLOOD UREA NITROGEN / CARBON DIOXIDE / CHLORIDE / CHOLESTEROL / CREATININE / GLUCOSE / LACTATE DEHYDROGENASE / LIPASE / PHOSPHORUS / POTASSIUM / SODIUM / TOTAL BILIRUBIN / TOTAL PROTEIN / URIC ACID: tissue Plasma

## C[C@]12CCC(=O)C=C1CC[C@@H]1[C@@H]2[C@@H](O)C[C@]2(C=O)[C@@H](C(=O)CO)CC[C@@H]12 [ALDOSTERONE]
72 h, time 3 day
  ABSOLUTE BASOPHIL: 0 CELLS/uL
  ABSOLUTE EOSINOPHIL: 0 CELLS/uL
  ABSOLUTE LYMPHOCYTE: 11286 CELLS/uL
  ABSOLUTE MONOCYTE: 180.67 CELLS/uL
  ABSOLUTE SEGMENTED NEUTROPHIL: 1866.67 CELLS/uL
  BASOPHIL: 0%
  EOSINOPHIL: 0%
  ERYTHROCYTE COUNT: 5.69 x10E6/uL
  HEMATOCRIT: 34.17%
  HEMOGLOBIN: 12.73 G/DL
  LEUKOCYTE COUNT: 13.33 x10E3/uL
  LYMPHOCYTE: 84.67%
  MEAN CORPUSCULAR HEMOGLOBIN: 22.37 pg
  MEAN CORPUSCULAR HEMOGLOBIN CONCENTRATION: 37.3 G/DL
  MEAN CORPUSCULAR VOLUME: 60.03 fL
  MONOCYTE: 1.33%
  NEUTROPHIL: 14%
  NUCLEATED RED BLOOD CELLS: 0.33 /100WBC
  PLATELET COUNT: 1067.67 x10E3/uL
  ALANINE AMINOTRANSFERASE: 52.33 u/L
  ALBUMIN: 3.8 G/DL
  ALKALINE PHOSPHATASE: 293.67 u/L
  ASPARTATE AMINOTRANSFERASE: 90 u/L
  BLOOD UREA NITROGEN: 15.67 mg/dL
  CARBON DIOXIDE: 32 mmol/L
  CHLORIDE: 100 MEQ/L
  CHOLESTEROL: 66.33 mg/dL
  CREATININE: 0.14 mg/dL
  GLUCOSE: 146 mg/dL
  LACTATE DEHYDROGENASE: 443 u/L
  LIPASE: 9.33 u/L
  PHOSPHORUS: 11.27 mg/dL
  POTASSIUM: 5.07 MEQ/L
  SODIUM: 146.93 MEQ/L
  TOTAL BILIRUBIN: 0.2 mg/dL
  TOTAL PROTEIN: 5.73 G/DL
  URIC ACID: 1.5 mg/dL
120 h, time 5 day
  ABSOLUTE BASOPHIL: 0 CELLS/uL
  ABSOLUTE EOSINOPHIL: 69 CELLS/uL
  ABSOLUTE LYMPHOCYTE: 17030 CELLS/uL
  ABSOLUTE MONOCYTE: 489 CELLS/uL
  ABSOLUTE SEGMENTED NEUTROPHIL: 1812 CELLS/uL
  BASOPHIL: 0%
  EOSINOPHIL: 0.33%
  ERYTHROCYTE COUNT: 5.8 x10E6/uL
  HEMATOCRIT: 34.77%
  HEMOGLOBIN: 12.97 G/DL
  LEUKOCYTE COUNT: 19.4 x10E3/uL
  LYMPHOCYTE: 87.33%
  MEAN CORPUSCULAR HEMOGLOBIN: 22.4 pg
  MEAN CORPUSCULAR HEMOGLOBIN CONCENTRATION: 37.3 G/DL
  MEAN CORPUSCULAR VOLUME: 60.03 fL
  MONOCYTE: 2.67%
  NEUTROPHIL: 9.67%
  NUCLEATED RED BLOOD CELLS: 0 /100WBC
  PLATELET COUNT: 1473 x10E3/uL
  ALANINE AMINOTRANSFERASE: 47.67 u/L
  ALBUMIN: 3.77 G/DL
  ALKALINE PHOSPHATASE: 252 u/L
  ASPARTATE AMINOTRANSFERASE: 83 u/L
  BLOOD UREA NITROGEN: 11.33 mg/dL
  CARBON DIOXIDE: 36.33 mmol/L
  CHLORIDE: 96.67 MEQ/L
  CHOLESTEROL: 64.33 mg/dL
  CREATININE: 0.13 mg/dL
  GLUCOSE: 142.67 mg/dL
  LACTATE DEHYDROGENASE: 335 u/L
  LIPASE: 9 u/L
  PHOSPHORUS: 11.97 mg/dL
  POTASSIUM: 5.4 MEQ/L
  SODIUM: 147.3 MEQ/L
  TOTAL BILIRUBIN: 0.17 mg/dL
  TOTAL PROTEIN: 5.53 G/DL
  URIC ACID: 1.93 mg/dL
Time 14 day
  ABSOLUTE BASOPHIL: 0 CELLS/uL
  ABSOLUTE EOSINOPHIL: 65.4 CELLS/uL
  ABSOLUTE LYMPHOCYTE: 13364.4 CELLS/uL
  ABSOLUTE MONOCYTE: 314 CELLS/uL
  ABSOLUTE SEGMENTED NEUTROPHIL: 2076.2 CELLS/uL
  BASOPHIL: 0%
  EOSINOPHIL: 0.6%
  ERYTHROCYTE COUNT: 6.35 x10E6/uL
  HEMATOCRIT: 37.42%
  HEMOGLOBIN: 13.62 G/DL
  LEUKOCYTE COUNT: 15.82 x10E3/uL
  LYMPHOCYTE: 84%
  MEAN CORPUSCULAR HEMOGLOBIN: 21.48 pg
  MEAN CORPUSCULAR HEMOGLOBIN CONCENTRATION: 36.4 G/DL
  MEAN CORPUSCULAR VOLUME: 59.08 fL
  MONOCYTE: 2%
  NEUTROPHIL: 13.4%
  NUCLEATED RED BLOOD CELLS: 0 /100WBC
  PLATELET COUNT: 1043.2 x10E3/uL
  ALANINE AMINOTRANSFERASE: 55.8 u/L
  ALBUMIN: 4.14 G/DL
  ALKALINE PHOSPHATASE: 346.6 u/L
  ASPARTATE AMINOTRANSFERASE: 86.8 u/L
  BLOOD UREA NITROGEN: 12.2 mg/dL
  CARBON DIOXIDE: 43 mmol/L
  CHLORIDE: 94.2 MEQ/L
  CHOLESTEROL: 64.6 mg/dL
  CREATININE: 0.17 mg/dL
  GLUCOSE: 150.2 mg/dL
  LACTATE DEHYDROGENASE: 88.6 u/L
  LIPASE: 9.2 u/L
  PHOSPHORUS: 11.36 mg/dL
  POTASSIUM: 4.4 MEQ/L
  SODIUM: 147.78 MEQ/L
  TOTAL BILIRUBIN: 0.14 mg/dL
  TOTAL PROTEIN: 6.2 G/DL
  URIC ACID: 1.72 mg/dL

Source: ChEMBL document CHEMBL3885881, “DrugMatrix”
